The assay has as its target Complement factor I (Homo sapiens) (UniProt P05156). As to the kind of experiment: In vitro activity against human Complement factor I.

SMILES strings stand for the structures.

What is called IC50 is the concentration that inhibits the measured activity by half. Low values mean inhibition by little substance, high ones a need for much substance.

Complement factor I (Homo sapiens), sequence (P05156 whole entry, looked up): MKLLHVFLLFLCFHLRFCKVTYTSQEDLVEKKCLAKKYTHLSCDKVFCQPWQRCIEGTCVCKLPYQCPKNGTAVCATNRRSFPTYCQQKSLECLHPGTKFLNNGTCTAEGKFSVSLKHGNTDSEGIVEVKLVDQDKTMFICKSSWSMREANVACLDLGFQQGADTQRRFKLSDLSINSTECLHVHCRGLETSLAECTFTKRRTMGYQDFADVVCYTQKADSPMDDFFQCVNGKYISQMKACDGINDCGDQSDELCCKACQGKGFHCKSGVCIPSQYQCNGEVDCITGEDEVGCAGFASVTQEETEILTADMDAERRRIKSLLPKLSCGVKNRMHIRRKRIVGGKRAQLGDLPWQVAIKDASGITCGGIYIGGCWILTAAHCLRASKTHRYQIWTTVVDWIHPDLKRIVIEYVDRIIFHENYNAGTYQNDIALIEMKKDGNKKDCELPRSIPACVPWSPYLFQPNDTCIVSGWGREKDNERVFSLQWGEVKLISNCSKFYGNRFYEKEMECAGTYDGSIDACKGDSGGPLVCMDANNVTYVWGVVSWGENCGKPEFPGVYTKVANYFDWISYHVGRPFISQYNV

`CS(=O)(=O)c1ccccc1-c1ccc(NC(=O)c2cc(C(F)(F)F)nn2-c2cccc(CN)c2)c(F)c1`: it took 44 µM to reach half-maximal inhibition (IC50).

The record behind these values is BindingDB's records for doi:10.1021/jm000409z (Dupont Pharmaceuticals, 2001).
